# Assay results taken from patent US20240383913A1, “THIOPHENE RING COMPOUND, PREPARATION METHOD THEREFOR AND APPLICATION THEREOF” (CENTER FOR EXCELLENCE IN MOLECULAR CELL SCIENCE, CHINESE …, priority 2021, published 2024).
# Experiments:
# [1] = test system: hyperlocomotion of the mice induced by MK801; assay: Open field test, hyperlocomotion induced by MK801; type: in vivo, C57B6 male mice; details: for Distance travelled (cm): 5-minute bin
# Method: Experimental method: The experimental animals were C57B6 male mice, n=8 in each group. This model used C57B6 mice as experimental animals. Hyperlocomotion of the mice in open field was induced by acute injection of a NMDA antagonist MK801. and modeled to test the inhibitory effect of different compounds on hyperkinesia phenotype induced by MK801. All mouse behavior experiments were carried out during the light period, and the whole process was recorded by the camera and locomotive data were tracked and analyzed by behavioral tracking software. The compounds were administered intraperitoneally. Immediately after the injection, the mice entered the open field and their movement trajectories were recorded by the camera. After 30 minutes, the mice received 0.2 mg/kg of MK801 by intraperitoneal injection and returned to the open field immediately after administration and the movement trajectories were further recorded for 120 minutes. The accumulative travelled distance of the mice was counted in a 5-minute bin. Data statistics were performed using Student-t-test analysis, *p<0.05, ** p<0.01, *** p<0.001, **** p<0.0001.
# [2] = test system: restraint-induced depression-like behaviors; assay: Tail suspension test after 5-hour restraint; type: in vivo, C57B6 male mice; details: for Immobility time (seconds), tail suspension test: 5 hour restraint
# Method: The experimental animals were C57B6 male mice, n=8 in each group. 5-hour restraint were used to develop depression-like behavioral representations of the mice, then the effects of the compounds on their “depression-like” behaviors were measured according to behavioral performance in tail suspension test and forced swimming test. The specific experimental procedures were as follows: Firstly, the mice were restrained using a mouse fixator for tail vein injection. During the restraint process, all movement abilities of the mice were restricted under the condition of introducing minimal pain to the mice. Compounds were administered intraperitoneally twice, before and after restraint, respectively. After compound administration, the mice returned to the cage to recover for 30 minutes. After 30 minutes recovery, the mice in different groups were subjected to tail suspension test or forced swimming test to measure their “depression-like” behaviors.
# Tail suspension test: mouse tails were fixed a cantilever arm on an iron rack using adhesive tape, and the mouse was maintained in a suspension position for 6 minutes. The first 2 minutes were the adaptation period and no data collection was performed. Subsequently, the mouse's immobility behavior was recorded intermittently for the remaining 4 minutes. The duration of immobility was measured to assess the level of behavioral despair in the mice. Data statistics were performed using Student-t-test analysis, *p<0.05, ** p<0.01, *** p<0.001, **** p<0.0001.
compound,measurement,setting,value
"CN(C)C(=O)N[C@H]1CC[C@H](CCN2CCN3c4cccc5scc(c45)CC3C2)CC1 (single isomer, unassigned; (-)) [(−)-I-27]",Distance travelled (cm),"[1]; (−)-I-27 0.2 mg/kg i.p. + MK801 0.2 mg/kg, 70 minutes after MK801",449.29 ± 121.61 cm
same,Distance travelled (cm),"[1]; (−)-I-27 0.2 mg/kg i.p. + MK801 0.2 mg/kg, 75 minutes after MK801",564.58 ± 153.01 cm
same,Distance travelled (cm),"[1]; (−)-I-27 0.2 mg/kg i.p. + MK801 0.2 mg/kg, 80 minutes after MK801",501.93 ± 119.91 cm
same,Distance travelled (cm),"[1]; (−)-I-27 0.2 mg/kg i.p. + MK801 0.2 mg/kg, 85 minutes after MK801",471.35 ± 107.44 cm
same,Distance travelled (cm),"[1]; (−)-I-27 0.2 mg/kg i.p. + MK801 0.2 mg/kg, 90 minutes after MK801",399.78 ± 105.26 cm
same,Distance travelled (cm),"[1]; (−)-I-27 0.2 mg/kg i.p. + MK801 0.2 mg/kg, 95 minutes after MK801",301.32 ± 70.58 cm
same,Distance travelled (cm),"[1]; (−)-I-27 0.2 mg/kg i.p. + MK801 0.2 mg/kg, 100 minutes after MK801",268.55 ± 74.28 cm
same,Distance travelled (cm),"[1]; (−)-I-27 0.2 mg/kg i.p. + MK801 0.2 mg/kg, 105 minutes after MK801",299.24 ± 98.85 cm
same,Distance travelled (cm),"[1]; (−)-I-27 0.2 mg/kg i.p. + MK801 0.2 mg/kg, 110 minutes after MK801",378.85 ± 88.69 cm
same,Distance travelled (cm),"[1]; (−)-I-27 0.2 mg/kg i.p. + MK801 0.2 mg/kg, 115 minutes after MK801",236.86 ± 61.21 cm
same,Distance travelled (cm),"[1]; (−)-I-27 0.2 mg/kg i.p. + MK801 0.2 mg/kg, 120 minutes after MK801",183.04 ± 51.72 cm
same,Distance travelled (cm),"[1]; (−)-I-27 0.2 mg/kg i.p., 0 minutes, before MK801",426.03 ± 34.51 cm
same,Distance travelled (cm),"[1]; (−)-I-27 0.2 mg/kg i.p., −5 minutes, before MK801",420.23 ± 44.8 cm
same,Distance travelled (cm),"[1]; (−)-I-27 0.2 mg/kg i.p., −10 minutes, before MK801",462.71 ± 40.83 cm
same,Distance travelled (cm),"[1]; (−)-I-27 0.2 mg/kg i.p., −15 minutes, before MK801",534.93 ± 50.26 cm
same,Distance travelled (cm),"[1]; (−)-I-27 0.2 mg/kg i.p., −20 minutes, before MK801",614.02 ± 31.52 cm
same,Distance travelled (cm),"[1]; (−)-I-27 0.2 mg/kg i.p., −25 minutes, before MK801",741.08 ± 56.17 cm
same,Distance (cm) travelled in 45 minutes,"[1]; (−)-I-27 0.4 mg/kg i.p. + MK801 0.2 mg/kg, 0-45 minute interval after MK-801",4056.3 cm
same,Distance travelled (cm),"[1]; (−)-I-27 0.4 mg/kg i.p. + MK801 0.2 mg/kg, 5 minutes after MK801",479.22 ± 57.64 cm
same,Distance travelled (cm),"[1]; (−)-I-27 0.4 mg/kg i.p. + MK801 0.2 mg/kg, 10 minutes after MK801",277.07 ± 32.68 cm
same,Distance travelled (cm),"[1]; (−)-I-27 0.4 mg/kg i.p. + MK801 0.2 mg/kg, 15 minutes after MK801",316.03 ± 70.39 cm
same,Distance travelled (cm),"[1]; (−)-I-27 0.4 mg/kg i.p. + MK801 0.2 mg/kg, 20 minutes after MK801",370.1 ± 75.27 cm
same,Distance travelled (cm),"[1]; (−)-I-27 0.4 mg/kg i.p. + MK801 0.2 mg/kg, 25 minutes after MK801",403.74 ± 108.16 cm
same,Distance travelled (cm),"[1]; (−)-I-27 0.4 mg/kg i.p. + MK801 0.2 mg/kg, 30 minutes after MK801",584.67 ± 129.63 cm
same,Distance travelled (cm),"[1]; (−)-I-27 0.4 mg/kg i.p. + MK801 0.2 mg/kg, 35 minutes after MK801",633.6 ± 143.49 cm
same,Distance travelled (cm),"[1]; (−)-I-27 0.4 mg/kg i.p. + MK801 0.2 mg/kg, 40 minutes after MK801",483.45 ± 104.6 cm
same,Distance travelled (cm),"[1]; (−)-I-27 0.4 mg/kg i.p. + MK801 0.2 mg/kg, 45 minutes after MK801",508.42 ± 110.56 cm
same,Distance travelled (cm),"[1]; (−)-I-27 0.4 mg/kg i.p. + MK801 0.2 mg/kg, 50 minutes after MK801",541.28 ± 85 cm
same,Distance travelled (cm),"[1]; (−)-I-27 0.4 mg/kg i.p. + MK801 0.2 mg/kg, 55 minutes after MK801",483.29 ± 71.91 cm
same,Distance travelled (cm),"[1]; (−)-I-27 0.4 mg/kg i.p. + MK801 0.2 mg/kg, 60 minutes after MK801",421.36 ± 61.47 cm
same,Distance travelled (cm),"[1]; (−)-I-27 0.4 mg/kg i.p. + MK801 0.2 mg/kg, 65 minutes after MK801",371.77 ± 42.78 cm
same,Distance travelled (cm),"[1]; (−)-I-27 0.4 mg/kg i.p. + MK801 0.2 mg/kg, 70 minutes after MK801",347.51 ± 55.13 cm
same,Distance travelled (cm),"[1]; (−)-I-27 0.4 mg/kg i.p. + MK801 0.2 mg/kg, 75 minutes after MK801",296.62 ± 78.74 cm
same,Distance travelled (cm),"[1]; (−)-I-27 0.4 mg/kg i.p. + MK801 0.2 mg/kg, 80 minutes after MK801",244.49 ± 76.54 cm
same,Distance travelled (cm),"[1]; (−)-I-27 0.4 mg/kg i.p. + MK801 0.2 mg/kg, 85 minutes after MK801",160.39 ± 34.08 cm
same,Distance travelled (cm),"[1]; (−)-I-27 0.4 mg/kg i.p. + MK801 0.2 mg/kg, 90 minutes after MK801",386.57 ± 158.41 cm
same,Distance travelled (cm),"[1]; (−)-I-27 0.4 mg/kg i.p. + MK801 0.2 mg/kg, 95 minutes after MK801",201.39 ± 68.43 cm
same,Distance travelled (cm),"[1]; (−)-I-27 0.4 mg/kg i.p. + MK801 0.2 mg/kg, 100 minutes after MK801",234.28 ± 63.3 cm
same,Distance travelled (cm),"[1]; (−)-I-27 0.4 mg/kg i.p. + MK801 0.2 mg/kg, 105 minutes after MK801",229.02 ± 63.13 cm
same,Distance travelled (cm),"[1]; (−)-I-27 0.4 mg/kg i.p. + MK801 0.2 mg/kg, 110 minutes after MK801",210.95 ± 45.58 cm
same,Distance travelled (cm),"[1]; (−)-I-27 0.4 mg/kg i.p. + MK801 0.2 mg/kg, 115 minutes after MK801",323.92 ± 121.74 cm
same,Distance travelled (cm),"[1]; (−)-I-27 0.4 mg/kg i.p. + MK801 0.2 mg/kg, 120 minutes after MK801",324.23 ± 68.48 cm
same,Distance travelled (cm),"[1]; (−)-I-27 0.4 mg/kg i.p., 0 minutes, before MK801",441.97 ± 55.83 cm
same,Distance travelled (cm),"[1]; (−)-I-27 0.4 mg/kg i.p., −5 minutes, before MK801",317.51 ± 24.51 cm
same,Distance travelled (cm),"[1]; (−)-I-27 0.4 mg/kg i.p., −10 minutes, before MK801",419.17 ± 56.13 cm
same,Distance travelled (cm),"[1]; (−)-I-27 0.4 mg/kg i.p., −15 minutes, before MK801",374.1 ± 25.44 cm
same,Distance travelled (cm),"[1]; (−)-I-27 0.4 mg/kg i.p., −20 minutes, before MK801",475.66 ± 9.82 cm
same,Distance travelled (cm),"[1]; (−)-I-27 0.4 mg/kg i.p., −25 minutes, before MK801",903.06 ± 46.43 cm
same,Inhibition of restraint-induced depression-like behaviors,"[2]; 0.1 mg/kg and 0.025 mg/kg i.p., tail suspension and forced swimming tests",significantly inhibit
same,"Immobility time (seconds), tail suspension test",[2]; (−)-I-27 0.025 mg/kg i.p.,87.04 ± 7.69 s
same,"Immobility time (seconds), tail suspension test",[2]; (−)-I-27 0.1 mg/kg i.p.,54.13 ± 6.99 s
